Tests used:
[1] = AUC (0 to t) in Balb/c mouse at 5 mg/kg, ip administered as single dose measured upto 24 hrs by LC-MS/MS analysis; assay type: ADME, organism-based; set-up: route intraperitoneal, dose 5 mg/kg, time <=24; conditions: in vivo
[2] = Apparent clearance during terminal phase in Balb/c mouse at 5 mg/kg, ip administered as single dose measured upto 24 hrs by LC-MS/MS analysis; assay type: ADME, organism-based; conditions: in vivo, 5 mg/kg, 24 h
Plasmodium falciparum [3] = assay: Antimalarial activity against synchronized schizont stage transgenic Plasmodium falciparum 3D7 with C-terminal 3xTY1-fused HDAC2 knockdown assessed as parasite growth inhibition pretreated with glucosamine followed by compound treatment and incubated for 4 hrs followed by compound washout for thrice and subsequent culturing for 68 hrs by SYBR Green 1 staining based analysis; assay type: functional, organism-based
Plasmodium falciparum [4] = assay: Antiplasmodial activity against artemisinin-resistant Plasmodium falciparum 6218 infected in human erythrocytes assessed as reduction in parasite growth incubated for 72 hrs by Giemsa staining based light microscopic method; assay type: functional, organism-based; conditions: Plasmodium falciparum, 6218, Erythrocyte
[5] = Toxicity in Balb/c mouse infected with blood stage Plasmodium yoelii assessed as animal death at 10 to 30 mg/kg, ip QD for 5 consecutive days and measured on day 6; assay type: organism-based; conditions: in vivo, 120 h, dose 10-30 mg/kg, time 5 day
[6] = AUC (0 to infinity) in Balb/c mouse at 2 mg/kg, iv administered as single dose measured up to 24 hrs by LC-MS/MS analysis; assay type: ADME, organism-based; set-up: route intravenous, dose 2 mg/kg, time <=24; conditions: in vivo
[7] = Half life in Balb/c mouse at 2 mg/kg, iv administered as single dose measured upto 24 hrs by LC-MS/MS analysis; assay type: ADME, organism-based; conditions: in vivo
Histone deacetylase 1 = Histone deacetylase 1 (Homo sapiens, UniProt Q13547); assay type: ADME, cell-based, Sf9
Chain of Histone deacetylase 1 (Q13547 whole entry): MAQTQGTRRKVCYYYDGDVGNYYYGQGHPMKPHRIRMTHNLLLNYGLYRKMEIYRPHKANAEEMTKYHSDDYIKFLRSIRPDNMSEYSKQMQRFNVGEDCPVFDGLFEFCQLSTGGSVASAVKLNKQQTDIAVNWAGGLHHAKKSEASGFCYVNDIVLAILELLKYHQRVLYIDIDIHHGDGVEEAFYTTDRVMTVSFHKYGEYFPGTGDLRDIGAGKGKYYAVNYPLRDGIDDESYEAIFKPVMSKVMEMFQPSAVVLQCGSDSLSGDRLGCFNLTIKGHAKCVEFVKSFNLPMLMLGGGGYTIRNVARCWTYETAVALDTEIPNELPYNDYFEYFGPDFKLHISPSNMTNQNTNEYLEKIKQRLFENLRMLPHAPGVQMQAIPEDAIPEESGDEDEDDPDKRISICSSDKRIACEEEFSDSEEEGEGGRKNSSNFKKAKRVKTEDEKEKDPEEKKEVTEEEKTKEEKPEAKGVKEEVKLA

Histone deacetylase 8 = target: T1, Histone deacetylase 8 (Homo sapiens, UniProt Q9BY41); assay: Inhibition of full length human C-terminal His-tagged HDAC8 expressed in baculovirus infected Sf9 cells using Ac-peptide as substrate preincubated for 15 mins followed by substrate addition and incubated for 120 mins followed by trypsin addition and further incubated for 240 mins
T1 sequence (Q9BY41 whole entry): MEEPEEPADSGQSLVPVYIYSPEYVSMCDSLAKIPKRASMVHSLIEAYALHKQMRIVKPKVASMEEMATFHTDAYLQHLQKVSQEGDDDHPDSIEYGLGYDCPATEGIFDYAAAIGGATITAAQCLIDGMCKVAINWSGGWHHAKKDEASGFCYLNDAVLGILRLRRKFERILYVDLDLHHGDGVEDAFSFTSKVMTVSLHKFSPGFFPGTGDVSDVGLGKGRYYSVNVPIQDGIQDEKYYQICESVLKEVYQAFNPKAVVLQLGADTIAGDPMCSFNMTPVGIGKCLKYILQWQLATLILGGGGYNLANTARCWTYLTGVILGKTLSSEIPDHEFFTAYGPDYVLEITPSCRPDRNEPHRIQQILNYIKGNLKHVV

HepG2 = assay: Cytotoxicity against human HepG2 cells assessed as reduction in cell viability incubated for 72 hrs by cell titer glo assay; assay type: cell-based; conditions: HepG2, 72 h
Plasmodium falciparum [8] = assay: Antiplasmodial activity against Plasmodium falciparum C2A infected in human erythrocytes assessed as reduction in parasite growth incubated for 72 hrs by Giemsa staining based light microscopic method; assay type: functional, organism-based; conditions: Erythrocyte
[9] = Cmax in Balb/c mouse at 10 mg/kg, po administered as single dose measured upto 24 hrs by LC-MS/MS analysis; assay type: ADME, organism-based; set-up: route oral, dose 10 mg/kg, time <=24; conditions: in vivo

Cl.O=C(NO)c1cnc(N2CCC3(CCN(Cc4c[nH]c5ccccc45)C3)CC2)nc1 showed an AUC(0-t) at 24 h [1] of 81.9 ng·h/mL, a CLz/F [2] of 567 mL/min/kg and an IC50 (Plasmodium falciparum [3]) of 52.2 nM. The IC50 (Plasmodium falciparum [4]) was 3 nM, the Activity [5] was “Non-Toxic” and the AUC(0-inf) [6] was 119 ng·h/mL. For the same molecule, the half-life [7] was 43.2 min, the IC50 (Histone deacetylase 1) was 0.58 nM and the IC50 (Histone deacetylase 8) was 16 nM. For the same molecule, the IC50 (HepG2) was 264 nM, the IC50 (Plasmodium falciparum [8]) was 4.5 nM and the Cmax [9] was 2.49 ng/mL.

Source: ChEMBL document CHEMBL4706683 (J Med Chem, 2021)
